Assay results from ChEMBL document CHEMBL1201862, “PubChem BioAssay data set” (2004).
Calls of active or inactive are those of the source.

What was measured:
[1] = inhibitors of Vif binding to APOBEC3G peptide, primary screen, biochemical, TR-FRET, GST-Vif 1-94, biotin-A3G peptide, dose response retest (AID 1117319); type: functional;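 further: TR-FRET signal of purified GST-Vif binding a biotinylated A3G peptide; inhibitors lower the FRET signal by blocking Vif and A3G binding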
Estrogen receptor beta [2] = target: T1, Estrogen receptor beta (Homo sapiens, UniProt Q92731);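 further: recombinant ER-beta bound to coactivator SRC1 peptide in presence of estradiol agonist; inhibitors block coactivator peptide binding and lower the FRET signal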
T1 sequence (Q92731 whole entry): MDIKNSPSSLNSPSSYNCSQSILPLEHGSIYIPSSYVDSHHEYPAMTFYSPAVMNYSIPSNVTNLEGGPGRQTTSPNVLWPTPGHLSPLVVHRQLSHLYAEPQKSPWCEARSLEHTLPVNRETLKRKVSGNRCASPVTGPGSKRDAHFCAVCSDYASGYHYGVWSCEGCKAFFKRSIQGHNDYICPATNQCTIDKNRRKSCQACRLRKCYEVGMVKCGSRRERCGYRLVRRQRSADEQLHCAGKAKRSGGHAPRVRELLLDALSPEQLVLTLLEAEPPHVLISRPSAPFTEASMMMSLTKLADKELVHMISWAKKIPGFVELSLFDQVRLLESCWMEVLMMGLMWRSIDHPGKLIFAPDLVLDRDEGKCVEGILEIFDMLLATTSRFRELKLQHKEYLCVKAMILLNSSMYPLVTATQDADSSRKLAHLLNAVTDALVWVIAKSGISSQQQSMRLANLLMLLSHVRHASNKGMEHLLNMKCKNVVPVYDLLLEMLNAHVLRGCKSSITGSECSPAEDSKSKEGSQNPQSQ

Estrogen receptor beta [3] = target: T1, Estrogen receptor beta; assay: ERβ–SRC-3 coactivator interaction inhibitors, confirmation, orthogonal assay, biochemical, ELISA, streptavidin-HRP readout (AID 1060)
Bcl-2-like protein 10 = target: T2, Bcl-2-like protein 10 (Homo sapiens, UniProt Q9HD36); assay: displacers of TR3 peptide from Bcl-B, primary screen, selectivity assay for Bfl-1 inhibitor project, biochemical, fluorescence polarization, FITC-TR3 peptide (AID 748);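 further: fluorescence polarization from a fluorescein-labelled TR3 peptide binding purified Bcl-B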
T2 sequence (Q9HD36 whole entry): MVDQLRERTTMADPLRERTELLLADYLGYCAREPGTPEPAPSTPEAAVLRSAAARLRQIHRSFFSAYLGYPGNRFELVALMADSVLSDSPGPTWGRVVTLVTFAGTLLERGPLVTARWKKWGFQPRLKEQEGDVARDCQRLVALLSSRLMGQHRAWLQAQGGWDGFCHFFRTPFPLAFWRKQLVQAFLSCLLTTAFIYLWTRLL

Cytochrome P450 2C19 = Cytochrome P450 2C19 (Homo sapiens, UniProt P33261); assay: qHTS Assay for Inhibitors and Substrates of Cytochrome P450 2C19. [Related pubchem assays: 410 ]; type: ADME; details: read-out: Potency
[4] = target: Peroxisome proliferator-activated receptor gamma/Nuclear receptor coactivator 2 (Homo sapiens, UniProt P37231); type: functional;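 further: agonist potency for raising coactivator recruitment to the receptor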
Sequence of Peroxisome proliferator-activated receptor gamma/Nuclear receptor coactivator 2 (P37231 whole entry): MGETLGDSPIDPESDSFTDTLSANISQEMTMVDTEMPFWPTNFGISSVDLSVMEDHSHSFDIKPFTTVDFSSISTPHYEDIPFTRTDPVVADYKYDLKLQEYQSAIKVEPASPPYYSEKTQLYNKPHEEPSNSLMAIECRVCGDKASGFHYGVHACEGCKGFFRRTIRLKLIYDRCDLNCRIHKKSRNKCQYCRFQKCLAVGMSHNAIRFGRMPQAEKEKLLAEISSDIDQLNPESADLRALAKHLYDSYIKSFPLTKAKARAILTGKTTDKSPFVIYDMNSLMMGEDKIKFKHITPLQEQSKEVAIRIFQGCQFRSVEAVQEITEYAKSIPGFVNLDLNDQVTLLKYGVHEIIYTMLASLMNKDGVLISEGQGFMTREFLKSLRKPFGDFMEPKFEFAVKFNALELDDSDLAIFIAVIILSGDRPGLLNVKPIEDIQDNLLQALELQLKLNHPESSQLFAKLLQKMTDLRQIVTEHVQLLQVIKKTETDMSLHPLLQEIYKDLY
Sequence of Peroxisome proliferator-activated receptor gamma/Nuclear receptor coactivator 2 (Q15596 whole entry, further chain): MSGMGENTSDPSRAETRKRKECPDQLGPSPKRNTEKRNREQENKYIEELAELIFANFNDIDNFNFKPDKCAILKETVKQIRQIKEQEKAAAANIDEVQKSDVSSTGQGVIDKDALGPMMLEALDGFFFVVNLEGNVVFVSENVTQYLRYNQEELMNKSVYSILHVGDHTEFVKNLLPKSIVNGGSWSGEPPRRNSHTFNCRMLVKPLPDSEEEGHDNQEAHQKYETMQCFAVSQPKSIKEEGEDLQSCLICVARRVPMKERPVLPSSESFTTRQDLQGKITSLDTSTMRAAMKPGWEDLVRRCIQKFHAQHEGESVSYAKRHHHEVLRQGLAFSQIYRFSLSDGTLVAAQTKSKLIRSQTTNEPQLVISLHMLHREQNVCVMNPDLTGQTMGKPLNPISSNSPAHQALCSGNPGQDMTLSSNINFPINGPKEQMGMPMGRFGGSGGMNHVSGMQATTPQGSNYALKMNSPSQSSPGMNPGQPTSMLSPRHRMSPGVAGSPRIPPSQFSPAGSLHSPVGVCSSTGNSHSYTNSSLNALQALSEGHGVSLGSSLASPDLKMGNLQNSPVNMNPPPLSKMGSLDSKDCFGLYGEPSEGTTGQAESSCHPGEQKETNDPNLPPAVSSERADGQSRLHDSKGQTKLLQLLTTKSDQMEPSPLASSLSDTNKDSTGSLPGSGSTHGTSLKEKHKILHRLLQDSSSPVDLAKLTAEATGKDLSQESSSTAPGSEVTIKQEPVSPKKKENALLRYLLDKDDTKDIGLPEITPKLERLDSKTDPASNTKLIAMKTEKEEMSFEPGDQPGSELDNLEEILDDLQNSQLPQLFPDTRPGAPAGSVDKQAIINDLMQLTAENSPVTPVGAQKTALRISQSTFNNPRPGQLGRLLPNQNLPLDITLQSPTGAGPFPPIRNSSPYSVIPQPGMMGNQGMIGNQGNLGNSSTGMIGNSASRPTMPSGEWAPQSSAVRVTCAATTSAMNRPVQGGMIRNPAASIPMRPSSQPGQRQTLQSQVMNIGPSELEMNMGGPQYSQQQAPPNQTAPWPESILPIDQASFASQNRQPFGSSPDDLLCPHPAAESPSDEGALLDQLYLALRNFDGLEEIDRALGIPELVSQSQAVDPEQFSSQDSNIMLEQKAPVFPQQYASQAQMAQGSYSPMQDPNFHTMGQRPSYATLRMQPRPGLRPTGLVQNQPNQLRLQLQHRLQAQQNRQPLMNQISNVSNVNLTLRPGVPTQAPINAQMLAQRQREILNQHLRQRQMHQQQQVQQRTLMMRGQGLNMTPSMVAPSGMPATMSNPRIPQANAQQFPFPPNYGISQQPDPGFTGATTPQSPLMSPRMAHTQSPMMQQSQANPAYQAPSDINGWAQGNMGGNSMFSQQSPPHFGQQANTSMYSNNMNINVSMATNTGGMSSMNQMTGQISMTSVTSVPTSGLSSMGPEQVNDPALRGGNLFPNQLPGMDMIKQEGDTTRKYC

[5] = target: Peroxisome proliferator-activated receptor gamma/Nuclear receptor coactivator 3 (Homo sapiens, UniProt P37231); type: functional;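 further: agonist potency for raising coactivator recruitment to the receptor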
Sequence of Peroxisome proliferator-activated receptor gamma/Nuclear receptor coactivator 3 (P37231 whole entry): as the sequence (P37231 whole entry) above
Sequence of Peroxisome proliferator-activated receptor gamma/Nuclear receptor coactivator 3 (Q9Y6Q9 whole entry, further chain): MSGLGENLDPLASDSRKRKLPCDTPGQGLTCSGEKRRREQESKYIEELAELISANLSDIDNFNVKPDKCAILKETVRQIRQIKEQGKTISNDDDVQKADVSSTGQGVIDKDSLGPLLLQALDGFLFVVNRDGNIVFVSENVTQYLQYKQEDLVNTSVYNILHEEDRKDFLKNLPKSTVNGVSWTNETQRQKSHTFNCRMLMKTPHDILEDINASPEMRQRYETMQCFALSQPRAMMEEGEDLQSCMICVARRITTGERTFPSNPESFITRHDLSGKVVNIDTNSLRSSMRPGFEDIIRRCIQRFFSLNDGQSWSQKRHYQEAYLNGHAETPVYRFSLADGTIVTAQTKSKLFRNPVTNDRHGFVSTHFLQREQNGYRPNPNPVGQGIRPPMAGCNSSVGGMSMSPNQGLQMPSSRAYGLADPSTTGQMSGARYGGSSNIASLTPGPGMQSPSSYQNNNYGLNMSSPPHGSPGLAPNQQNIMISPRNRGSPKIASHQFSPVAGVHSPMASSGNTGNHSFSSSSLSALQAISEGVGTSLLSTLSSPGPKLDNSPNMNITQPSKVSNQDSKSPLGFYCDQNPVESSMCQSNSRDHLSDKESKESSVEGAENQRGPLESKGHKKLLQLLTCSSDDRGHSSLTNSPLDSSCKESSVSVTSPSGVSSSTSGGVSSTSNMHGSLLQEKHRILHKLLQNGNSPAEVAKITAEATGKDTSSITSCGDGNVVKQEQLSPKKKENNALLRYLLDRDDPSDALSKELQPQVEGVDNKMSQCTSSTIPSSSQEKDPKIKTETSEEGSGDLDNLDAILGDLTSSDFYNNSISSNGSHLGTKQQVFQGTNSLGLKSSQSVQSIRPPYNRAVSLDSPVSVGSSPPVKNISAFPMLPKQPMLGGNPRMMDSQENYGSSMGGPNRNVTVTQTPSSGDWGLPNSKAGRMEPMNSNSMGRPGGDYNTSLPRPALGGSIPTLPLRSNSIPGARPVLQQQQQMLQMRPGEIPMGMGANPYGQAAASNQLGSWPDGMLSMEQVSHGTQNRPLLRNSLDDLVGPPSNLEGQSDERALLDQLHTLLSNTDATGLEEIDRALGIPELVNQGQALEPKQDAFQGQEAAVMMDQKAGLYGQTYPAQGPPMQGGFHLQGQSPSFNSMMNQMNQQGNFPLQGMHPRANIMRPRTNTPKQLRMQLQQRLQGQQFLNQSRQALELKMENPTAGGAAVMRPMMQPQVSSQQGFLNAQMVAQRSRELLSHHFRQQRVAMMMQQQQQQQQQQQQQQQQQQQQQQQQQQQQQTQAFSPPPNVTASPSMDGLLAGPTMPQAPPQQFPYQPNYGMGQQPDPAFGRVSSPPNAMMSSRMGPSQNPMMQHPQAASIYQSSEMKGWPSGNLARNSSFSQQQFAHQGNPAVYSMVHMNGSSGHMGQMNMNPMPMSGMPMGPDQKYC

[6] = target: Peroxisome proliferator-activated receptor gamma/Nuclear receptor coactivator 1 (Homo sapiens, UniProt P37231); type: functional;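 further: agonist potency as compounds enhance coactivator SRC-1 recruitment to PPARgamma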
Estrogen receptor = target: T3, Estrogen receptor (Homo sapiens, UniProt P03372);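 further: potency for inhibiting coactivator peptide recruitment to the receptor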
T3 sequence (P03372 whole entry): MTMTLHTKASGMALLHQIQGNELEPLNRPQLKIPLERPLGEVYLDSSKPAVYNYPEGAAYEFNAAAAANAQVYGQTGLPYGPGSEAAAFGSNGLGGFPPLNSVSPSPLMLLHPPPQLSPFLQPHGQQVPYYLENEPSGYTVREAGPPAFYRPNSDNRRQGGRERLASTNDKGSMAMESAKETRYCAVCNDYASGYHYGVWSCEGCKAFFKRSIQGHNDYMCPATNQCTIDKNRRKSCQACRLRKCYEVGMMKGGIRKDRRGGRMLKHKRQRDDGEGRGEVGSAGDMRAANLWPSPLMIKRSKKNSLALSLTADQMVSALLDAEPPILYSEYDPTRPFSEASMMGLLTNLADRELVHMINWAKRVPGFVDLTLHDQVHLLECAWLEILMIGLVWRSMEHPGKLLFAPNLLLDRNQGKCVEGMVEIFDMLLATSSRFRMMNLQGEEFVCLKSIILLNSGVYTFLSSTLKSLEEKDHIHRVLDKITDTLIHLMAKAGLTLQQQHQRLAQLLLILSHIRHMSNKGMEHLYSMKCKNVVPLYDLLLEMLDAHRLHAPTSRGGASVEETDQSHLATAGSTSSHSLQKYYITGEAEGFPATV

[7] = Dose-response inhibition of insulin secretion in a rat insulinoma line at 5 mM glucose (AID 1117331); type: functional, cell-based; details: INS-1E
[8] = inhibitors of PGC1a acetylation in cells, dose response, cell-based, cherry-picked samples (AID 720514); type: functional;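 further: potency may reflect raised or lowered acetylation signal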
Paired box protein Pax-8 = Paired box protein Pax-8 (Homo sapiens, UniProt Q06710); assay: inhibitors of PAX8-driven TPO luciferase reporter, dose response, RMG-I cells, cherry-pick (AID 687027); type: functional, cell-based;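 further: luciferase reporter driven by Pax8 target thyroperoxidase promoter measured by SteadyGlo luminescence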
Sequence of Paired box protein Pax-8 (Q06710 whole entry): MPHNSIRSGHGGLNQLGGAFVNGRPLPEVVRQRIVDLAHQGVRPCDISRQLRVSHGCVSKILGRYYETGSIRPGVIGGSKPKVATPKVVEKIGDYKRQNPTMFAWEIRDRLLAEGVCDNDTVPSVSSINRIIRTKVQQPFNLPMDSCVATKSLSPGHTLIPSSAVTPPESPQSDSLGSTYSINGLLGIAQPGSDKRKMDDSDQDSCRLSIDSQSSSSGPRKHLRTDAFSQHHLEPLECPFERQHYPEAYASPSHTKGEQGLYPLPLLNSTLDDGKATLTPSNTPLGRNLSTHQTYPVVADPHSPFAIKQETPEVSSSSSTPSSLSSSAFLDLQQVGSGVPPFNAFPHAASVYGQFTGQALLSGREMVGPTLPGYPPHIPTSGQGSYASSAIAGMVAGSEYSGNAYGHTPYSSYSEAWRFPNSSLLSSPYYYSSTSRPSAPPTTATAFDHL

[9] = non-specific cell cytotoxicity, dose response, cytotoxicity control for PAX8 inhibitor project, plate reader, dry powder samples (AID 743021); type: functional, cell-based
[10] = P. falciparum Dd2 growth inhibitors, dose response, SYBR Green, cherry-picked samples (AID 1159567); type: functional, cell-based
[11] = P. falciparum Dd2 growth inhibitors, dose response, SYBR Green, dry powder samples, set 9 (AID 1159568); type: functional, cell-based
[12] = NIH:OVCAR-3 ovarian cancer cell cytotoxicity, dose response, PAX8 inhibitor project, plate reader, dry powder samples (AID 743044); type: functional, cell-based
[13] = cytotoxicity in OVCAR8 ovarian cancer cells, dose response, PAX8 project, cell-based, plate reader, dry powder samples (AID 743197); type: functional; details: OVCAR-8
[14] = HepG2 cell cytotoxicity, dose response, cytotoxicity control, plate reader, cherry-pick, antagonist series (AID 743416); type: functional, cell-based
[15] = MC4R antagonists, dose response, counter-screen for LGR2 antagonist project, cell-based, plate reader, cherry pick (AID 743444); type: functional;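 further: transfected HEK 293 cells stimulated with alpha-MSH peptide; potency of inhibitors of the alpha-MSH evoked signal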
[16] = A549 cell cytotoxicity, dose response, cytotoxicity control, plate reader, cherry-pick, antagonist series (AID 743412); type: functional, cell-based
[17] = T. cruzi growth inhibition in host cells, dose response, cell-based, plate reader, dry powder, set 2 (AID 652275); type: functional
[18] = P. falciparum ATP4 D1247Y mutant growth inhibitors, dose response, NITD609-resistant line, SYBR Green, dry powder (AID 1159571); type: functional, cell-based;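 further: parasites synchronized at ring stage by sorbitol before testing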
[19] = HepG2 cell cytotoxicity, dose response, cytotoxicity control, plate reader, dry powder samples (AID 1159569); type: functional, cell-based;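 further: inhibitor potency with signal falling toward the positive control level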
[20] = P. falciparum Dd2 growth inhibitors, dose response, SYBR Green, dry powder samples (AID 1159566); type: functional, cell-based;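 further: potency for growth inhibition with lower SYBR green DNA signal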
[21] = P. falciparum 3D7-ScDHODH growth inhibitors, dose response, SYBR Green, dry powder samples (AID 1159570); type: functional, cell-based;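 further: parasite growth measured after 72 hours of compound exposure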
[22] = target: T4, Methionyl-tRNA synthetase, putative (Trypanosoma brucei brucei, UniProt Q38C91); type: functional, Trypanosoma brucei brucei strain 927/4 GUTat10.1
T4 sequence (Q38C91 whole entry): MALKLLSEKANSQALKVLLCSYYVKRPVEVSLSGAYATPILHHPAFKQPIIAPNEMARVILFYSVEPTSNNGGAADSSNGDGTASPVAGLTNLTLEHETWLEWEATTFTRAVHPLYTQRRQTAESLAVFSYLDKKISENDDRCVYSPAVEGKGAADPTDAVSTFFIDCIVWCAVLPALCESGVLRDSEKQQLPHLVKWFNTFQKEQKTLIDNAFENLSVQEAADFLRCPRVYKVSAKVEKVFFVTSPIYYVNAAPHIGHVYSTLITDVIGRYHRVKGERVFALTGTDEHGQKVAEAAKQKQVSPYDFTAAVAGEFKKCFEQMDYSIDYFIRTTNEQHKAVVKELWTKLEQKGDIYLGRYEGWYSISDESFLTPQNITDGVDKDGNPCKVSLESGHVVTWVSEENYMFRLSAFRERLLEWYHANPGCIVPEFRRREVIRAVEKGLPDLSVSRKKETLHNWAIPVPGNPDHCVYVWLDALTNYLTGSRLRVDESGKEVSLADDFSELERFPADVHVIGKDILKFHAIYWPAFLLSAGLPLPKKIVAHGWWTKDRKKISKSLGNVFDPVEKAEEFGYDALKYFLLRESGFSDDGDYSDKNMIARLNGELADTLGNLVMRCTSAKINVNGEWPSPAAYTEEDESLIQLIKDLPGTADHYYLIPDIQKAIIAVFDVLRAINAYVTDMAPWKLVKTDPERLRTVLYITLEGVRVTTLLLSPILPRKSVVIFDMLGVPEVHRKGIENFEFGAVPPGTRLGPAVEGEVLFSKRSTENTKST

[23] = target: T4, Methionyl-tRNA synthetase, putative; type: functional, Trypanosoma brucei brucei strain 927/4 GUTat10.1; remark: listed apart in the source
[24] = target: T5, DNA repair protein RAD52 homolog (Homo sapiens, UniProt P43351); type: functional, biochemical
T5 sequence (P43351 whole entry): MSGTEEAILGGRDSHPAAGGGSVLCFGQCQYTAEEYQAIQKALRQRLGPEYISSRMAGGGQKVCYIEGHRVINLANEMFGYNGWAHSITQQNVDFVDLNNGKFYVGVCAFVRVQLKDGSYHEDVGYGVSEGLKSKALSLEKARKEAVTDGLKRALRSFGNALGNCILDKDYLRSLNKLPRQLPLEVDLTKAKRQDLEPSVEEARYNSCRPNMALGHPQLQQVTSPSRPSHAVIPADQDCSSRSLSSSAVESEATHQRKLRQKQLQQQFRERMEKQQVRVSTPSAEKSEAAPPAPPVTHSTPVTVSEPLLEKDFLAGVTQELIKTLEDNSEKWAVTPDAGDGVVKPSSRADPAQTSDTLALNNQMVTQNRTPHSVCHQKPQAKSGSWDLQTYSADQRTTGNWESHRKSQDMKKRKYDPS

[25] = Counterscreen for inhibitors of Trypanosoma brucei methionyl tRNA synthetase (MetRS): Luminescence-based cell-based high throughput dose response assay to identify compounds that are cytotoxic to Jurkat human T lymphocyte cells.; type: functional

Structure (SMILES): CCc1ccccc1NC(=O)c1cc2ncc(Br)cn2n1
- IC50 [1]: > 100 µM (active)
- IC50 (Estrogen receptor beta [2]): 31 µM (not active)
- IC50 (Estrogen receptor beta [3]): 14.7 µM (not active)
- IC50 (Bcl-2-like protein 10): 62.5 µM (inactive)

Structure (SMILES): CC(=O)c1ccc(OC2C=CC(C#Cc3ccc(Br)cc3)OC2CO)cc1 (stereo not drawn)
- AC50 (Cytochrome P450 2C19): 3.98 µM (inconclusive)

Structure (SMILES): CCCCC#CC1C=CC(OC(C)=O)C(COC(C)=O)O1 (stereo not drawn)
- AC50 (Cytochrome P450 2C19): 7.94 µM (inconclusive)

Structure (SMILES): O=C(C1=C[C@@H](c2ccc(C(F)(F)F)cc2)C[C@@H](OCCCCO)O1)N1CCN(Cc2ccc3c(c2)OCO3)CC1
- EC50 [4]: > 79.4 µM (not active)
- EC50 [5]: > 79.4 µM (not active)
- EC50 [6]: > 79.4 µM (not active)

Structure (SMILES): CC(C)NC(=O)NC(=O)CSc1ccccc1F
- EC50 [4]: > 79.4 µM (not active)
- EC50 [5]: > 79.4 µM (not active)
- EC50 [6]: > 79.4 µM (not active)

Structure (SMILES): Cc1ccc(C(=O)NCC(=O)OCC(=O)c2c(N)n(C)c(=O)n(C)c2=O)s1
- IC50 (Estrogen receptor): > 50 µM (not active)
- IC50 (Estrogen receptor beta [2]): 6.84 µM (active)
- IC50 (Estrogen receptor beta [3]): 6.1 µM (not active)

Structure (SMILES): COc1ccc2c(c1OC)C(=O)O[C@H]2[C@@H]1c2cc3c(cc2CCN1C)OCO3
- IC50 [7]: > 33.3 µM (inactive)

Structure (SMILES): CCOC(=O)/C(C#N)=C/c1c(OCC)n(CC)c2ccccc12
- IC50 [1]: > 100 µM (active)

Structure (SMILES): CCC(C)NS(=O)(=O)c1ccc(NS(=O)(=O)c2ccc(F)cc2)cc1 (stereo not drawn)
- IC50 [1]: > 100 µM (active)

Structure (SMILES): O=C(NC1CCCC1)C(c1ccncc1)N(Cc1ccccc1F)C(=O)c1csnn1 (stereo not drawn)
- AC50 [8]: 34.7 µM (active)

Structure (SMILES): COc1ccc(S(=O)(=O)Nc2ccc3c(c2)C(=O)N([C@@H](C)CO)C[C@H](C)[C@@H](CN(C)C(=O)Nc2ccc(F)cc2)OCCCC[C@H](C)O3)cc1
- AC50 (Paired box protein Pax-8): 9.96 µM (active)
- AC50 [9]: 59.1 µM (active)

Structure (SMILES): O=C(C[C@H]1C[C@@H]2c3cc(NS(=O)(=O)c4ccc(F)cc4)ccc3O[C@@H]2[C@@H](CO)O1)N1CCc2ccccc2C1
- AC50 [10]: 9.73 µM (active)
- AC50 [8]: 17.5 µM (active)
- AC50 (Paired box protein Pax-8): 3.86 µM (active)
- AC50 [11]: 6.85 µM (active)
- AC50 [12]: 26.1 µM (active)
- AC50 [9]: 57.8 µM (active)
- AC50 [13]: 23.9 µM (active)

Structure (SMILES): C[C@H]1CN([C@@H](C)CO)C(=O)c2cc(C#CCc3ccccc3)cnc2O[C@H]1CN(C)Cc1ccccc1
- AC50 [14]: > 52 µM (inactive)
- AC50 [15]: 38.2 µM (active)
- AC50 [16]: 23.3 µM (active)

Structure (SMILES): CN(C)C(=O)c1ccc(-c2ccc([C@H]3[C@H](CO)N4CCCCN(C(=O)C5CCCC5)C[C@@H]34)cc2)cc1
- AC50 [17]: 48.8 nM (active)

Structure (SMILES): COc1ccc(C#Cc2cccc(-c3nc(C(=O)NCc4ccc5c(c4)OCO5)cc4c3[C@@H](CCO)N([S+]([O-])C(C)(C)C)C4)c2)cc1OC (stereo partly drawn)
- AC50 [10]: 0.747 µM (active)
- AC50 [17]: 580 nM (active)
- AC50 [18]: 1.52 µM (active)
- AC50 [19]: > 100 µM (inactive)
- AC50 [20]: 838 nM (active)
- AC50 [21]: 2.05 µM (active)

Structure (SMILES): CN(C)C(=O)c1cccc(-c2ccc([C@H]3[C@H](CO)N4CCCCN(CC5CCOCC5)C[C@@H]34)cc2)c1
- AC50 [17]: 4630 nM (active)

Structure (SMILES): CN(C)CC(=O)N1CCCCN2[C@@H](CO)[C@H](c3ccc(/C=C/c4ccccc4)cc3)[C@@H]2C1
- AC50 [8]: 23.8 µM (active)

Structure (SMILES): CC(=N)/C(C#N)=C(/O)CSc1nnc(Nc2ccccc2C)s1
- IC50 (Estrogen receptor beta [2]): 12.2 µM (active)
- IC50 (Estrogen receptor beta [3]): 5.18 µM (not active)

Structure (SMILES): C[C@@H]1CCCCO[C@@H](CN(C)C(=O)Nc2cccc3ccccc23)[C@H](C)CN([C@H](C)CO)C(=O)c2cc(NC(=O)CCC(F)(F)F)ccc2O1
- AC50 [11]: 1.08 µM (active)

Structure (SMILES): COc1ccc(NC(=O)N(C)C[C@H]2Oc3c(NC(=O)CCCCCC(=O)Nc4ccccc4N)cccc3C(=O)N([C@@H](C)CO)C[C@H]2C)cc1
- AC50 [11]: 0.983 µM (active)

Structure (SMILES): COc1cc2nc(Nc3cccc(F)c3)nc(N)c2cc1OC
- IC50 [22]: 26.2 µM (inactive)
- IC50 [23]: 18.2 µM (inactive)
- AC50 [24]: 8.77 µM (active)
- IC50 [25]: 35.5 µM (inactive)
